Square brackets hold non-standard residues; d marks the D form. Ends that are not written are not given here. Cha = N[C@@H](CC1CCCCC1)C(=O)O
Tests used:
[1] = fmoc spps; Wang resin (substitution about 0.8 mmole/g), Novabiochem; HBTU/DIEA; conditions: conjugation step, scale approximately 0.22 mmole (0.4 g Fmoc-AA-Wang resin); for final hplc purity: Method B, 260 nm
[2] = tested on: targets labeled with I9V peptide; assay: Chromium release assay of immune splenocytes from immunized HLA A2/Kb mice, I9V-loaded targets; type: in vivo; conditions: two doses of 50 nmoles; E:T ratio of 100
Protocol: Fourteen days later, the spleens were retrieved. The CTL responses of the immune splenocytes were tested after one round of in vitro stimulation (IVS). […] […]. […] This experiment was repeated four times with similar results each time. Using a two-tailed T test, there was a significant difference of P<0.03 at all E:T ratios. […].
[…]; SEQ ID NO:10). See Hartmann et al., J. Immunol. 164:1617-1624, 2000. The chemical yield and purity of this conjugate were similar to the others synthesized above using CpG 1826 (murine). […] […] The CpG-ODN used in Conjugate 10 also is known under the trade names ProMune™ or Vaxmune™ (Coley Pharmaceutical Group).

[3] = tested on: recombinant vaccinia virus expressing the HIV-pol gene; design: species or system mice; conditions: mouse, in vivo
I9V-loaded JA2 cells = assay: Chromium release assay, cells from immunized HHD II mice, I9V-loaded JA2 targets; type: in vivo; conditions: three mice each
Source text: HHD II mice were immunized with 1 nmole of either Conjugate 7 or Conjugate 3 (which is the same as Conjugate 7 but also contains PADRE). […].
To address whether the defect in Conjugate 7 immunogenicity was the missing PADRE TH epitope, immunizations with Conjugate 7 plus PADRE TH were compared to immunizations with Conjugate 7 alone. […]. […] Further, the majority of the stimulating activity of the PADRE epitope is caused by the sequence itself, rather than the artificial junction caused by chimerizing the CTL and TH epitopes, since Conjugate 3 and Conjugate 7 plus PADRE in trans have similar immunogenicity. Similar fusion peptides, including a fusion peptide composed of PADRE and an HPV-specific CTL epitope, have been administered to volunteers and women with cervical neoplasia without causing observable autoimmunity

Substance | final hplc purity [1] | step mass [1] | target cell lysis [2] [%] | protection against viral challenge [3] | immunogenicity (chromium release) (I9V-loaded JA2 cells)
PADRE:I9V:N:S9L + Oligo 3 | 70-80% pure | About 8.0 mg | – | – | –
KSS:PADRE:S9L + Oligo 3 | about 70-80% pure | About 6.0 mg | – | – | –
AKXVAAWTLKAAAILKEPVHGV, X = cyclohexylalanine (AK[Cha]VAAWTLKAAAILKEPVHGV) [PADRE:I9V fusion peptide] | – | – | 8 | equivalently unprotected | little immunogenicity

Reference: US10596254B2 (priority 2003, dated 2020)
